Results on one compound are retold here after patent US20240009182A1, “REPURPOSED COMPOUND AS THERAPEUTIC FOR HPV-ASSOCIATED CANCERS” (The Chinese University of Hong Kong, priority 2022, published 2024).

The test relates to HPV16 E7 protein in CaSki cells. Description: HPV16 E7 protein level by western blotting in treated CaSki cells. The format is cell-based. To be noted: 15 μM, 24-hr treatment. An excerpt:
FIG. 1A. The representative immunoblots showing the level of HPV16 E7 constitutively expressed in CaSki cells upon treatment with inhibitors specific for USP7 (P5091, FT671, GNE-6776 and HBX 19818) and that targeting pan-USPs (PR-619) at the indicated concentrations. DMSO served as a vehicle control treatment. Cells were then collected and lysed, the levels of USP7 and HPV16 E7 proteins were detected using the respective specific antibodies. Beta-actin (β-actin) was included as a loading control. KDa: kilodalton. FIG. 1B. The bar chart showing the relative protein level of HPV16 E7 normalized by β-actin (n=3). Data are expressed as mean±standard error of the mean (SEM); Right panel showing the images at 100× magnification of the morphology of the CaSki cells treated with P5091, FT671, GNE-6776, HBX 19818 and PR-619 at concentrations indicated. FIG. 1C. The immunoblots showing the levels of USP7 and HPV16 E7 proteins in CaSki and C-33A (an HPV-null cervical cancer cell line) upon downregulation of USP7 using siRNA targeting specifically against human USP7. FIG. 1D. The immunoblots showing the protein level of HPV16 E7 treated with different concentrations of HBX 19818. CaSki cells were treated with different concentrations of HBX 19818 or DMSO as indicated. Total cell lysates were subjected to western blotting using USP7, β-actin and HPV16 E7 specific antibodies. FIG. 1E. The bar chart showing the relative protein level of HPV16 E7 treated with different concentrations of HBX 19818 normalized by β-actin (n=3). Data are expressed as mean±SEM. FIG. 1F. The curve chart showing the level of E7 protein with increasing concentrations of HBX 19818 treatment. The percentage of HPV16 E7 protein level was analyzed using the non-linear regression function in GraphPad™ Prism 9. Error bars show standard errors of the mean (SEM). *: P<0.05; […]***: P<0.001.
Firstly, we screened four USP7-specific inhibitors (P5091, FT671. GNE-6776, and HBX 19818) and 1 pan-USPs inhibitor (PR-619) to characterize their inhibitory effect on E7 expression in HPV-containing cancer cells. We treated CaSki (HPV16-positive) cancer cells with P5091 at 5 μM and 10 μM; FT671, GNE-6776 and PR-619 at 3 μM and 15 μM; as well as HBX 19818 at 3 μM and 6 μM. These concentrations were chosen based on the reported IC50 values. After 24-hr treatment, the cells were collected, and total cell lysates were resolved by SDS-PAGE. The expression levels of USP7 and E7 were detected using respective specific antibodies.
On the technique in general: A western blot detects proteins with antibodies after separation by electrophoresis.

SMILES strings stand for the structures.

Take `CCc1c(-c2ccc(C(=O)NC)nc2)cnc(N)c1-c1ccc(O)cc1` [GNE-6776]: the “E7 protein level after inhibitor treatment” value is recorded as “decreased the E7 protein level drastically”.
